Experimental: Participants performed post-BD spirometry at specific visits as noted in the SOA.
After completing the pre-BD spirometry, participants inhaled four puffs of albuterol/salbutamol (site sourced) metered dose inhaler (approximately 100 μg albuterol/salbutamol base per actuation), with each actuation 1 minute apart. Post-BD spirometry was assessed within 15 to 30 minutes after inhalation of albuterol/salbutamol.

[1] = AECR≥0.5 patients, after 16 weeks
[2] = Week 16, <50% AEC reduction at Week 16
[3] = Week 16, <50% AEC reduction at Week 16 (N = 4), 150 mg BID

Compound: CCCN[C@@H]1CCc2nc(N)sc2C1 [Dexpramipexole, (6R)-2-amino-4,5,6,7-tetrahydro-6-(propylamino)benzothiazole]
- Post-BD FEV1, absolute increase [1]: 220 mL
- Post-BD FEV1, improvement compared to baseline [1]: 16.6%
- Post-BD FEF25-75, absolute increase (AECR≥0.5 patients, week 16): 130 mL
- Post-BD FEF25-75, average increase compared to baseline (AECR≥0.5 patients, week 16): 26.7%
- Post-BD FVC, absolute increase (AECR≥0.5 patients, week 16): 226.7 mL
- Post-BD FVC, average increase compared to baseline (AECR≥0.5 patients, week 16): 9.2%
- Post-BD Peak Flow, average improvement compared to baseline (AECR≥0.5 patients, week 16): 40.2%
- Post-BD FEV1 % change from baseline, Max [2]: 19%
- Post-BD FEV1 % change from baseline, Mean ± SD [2]: −0.1± 21.10%
- Post-BD FEV1 % change from baseline, Median [2]: 4.8%
- Post-BD FEV1 % change from baseline, Min [2]: −29%
- Post-BD FEV1 % change from baseline, Q1 [2]: −15%
- Post-BD FEV1 % change from baseline, Q3 [2]: 15%
- Post-BD FEV1 Observed, Max [2]: 1950 mL
- Post-BD FEV1 Observed, Mean ± SD [2]: 1522.5 ± 546.34 mL
- Post-BD FEV1 Observed, Median [2]: 1705.0 mL
- Post-BD FEV1 Observed, Min [2]: 730 mL
- Post-BD FEV1 Observed, Q1 [2]: 1170 mL
- Post-BD FEV1 Observed, Q3 [2]: 1875 mL
- Post-BD FEV1 change from baseline, Max [2]: 290 mL
- Post-BD FEV1 change from baseline, Mean ± SD [2]: 40.0 ± 260.90 mL
- Post-BD FEV1 change from baseline, Median [2]: 85.0 mL
- Post-BD FEV1 change from baseline, Min [2]: -300 mL
- Post-BD FEV1 change from baseline, Q1 [2]: -160 mL
- Post-BD FEV1 change from baseline, Q3 [2]: 240 mL
- Post bronchodilator Forced Expiratory Flow 25-75% (FEF25-75), % CFB (Percent change from baseline), Max [3]: 54%
- Post bronchodilator Forced Expiratory Flow 25-75% (FEF25-75), % CFB (Percent change from baseline), Mean ± SD [3]: 9.7 ± 40.69%
- Post bronchodilator Forced Expiratory Flow 25-75% (FEF25-75), % CFB (Percent change from baseline), Median [3]: 7.3%
- Post bronchodilator Forced Expiratory Flow 25-75% (FEF25-75), % CFB (Percent change from baseline), Min [3]: −29%
- Post bronchodilator Forced Expiratory Flow 25-75% (FEF25-75), % CFB (Percent change from baseline), Q1 [3]: −25%
- Post bronchodilator Forced Expiratory Flow 25-75% (FEF25-75), % CFB (Percent change from baseline), Q3 [3]: 44%
- Post bronchodilator Forced Expiratory Flow 25-75% (FEF25-75), CFB (Change from baseline), Max [3]: 290 mL/s
- Post bronchodilator Forced Expiratory Flow 25-75% (FEF25-75), CFB (Change from baseline), Mean ± SD [3]: 90.0 ± 225.24 mL/s
- Post bronchodilator Forced Expiratory Flow 25-75% (FEF25-75), CFB (Change from baseline), Median [3]: 90.0 mL/s
- Post bronchodilator Forced Expiratory Flow 25-75% (FEF25-75), CFB (Change from baseline), Min [3]: -110 mL/s
- Post bronchodilator Forced Expiratory Flow 25-75% (FEF25-75), CFB (Change from baseline), Q1 [3]: -105 mL/s
- Post bronchodilator Forced Expiratory Flow 25-75% (FEF25-75), CFB (Change from baseline), Q3 [3]: 285 mL/s
- Post bronchodilator Forced Expiratory Flow 25-75% (FEF25-75), Observed, Max [3]: 1090 mL/s
- Post bronchodilator Forced Expiratory Flow 25-75% (FEF25-75), Observed, Mean ± SD [3]: 650.0 ± 382.19 mL/s
- Post bronchodilator Forced Expiratory Flow 25-75% (FEF25-75), Observed, Median [3]: 635.0 mL/s
- Post bronchodilator Forced Expiratory Flow 25-75% (FEF25-75), Observed, Min [3]: 240 mL/s
- Post bronchodilator Forced Expiratory Flow 25-75% (FEF25-75), Observed, Q1 [3]: 340 mL/s
- Post bronchodilator Forced Expiratory Flow 25-75% (FEF25-75), Observed, Q3 [3]: 960 mL/s
- Post bronchodilator Forced Vital Capacity (FVC), % CFB (Percent change from baseline), Max [3]: 18%
- Post bronchodilator Forced Vital Capacity (FVC), % CFB (Percent change from baseline), Mean ± SD [3]: 3.0 ± 14.06%
- Post bronchodilator Forced Vital Capacity (FVC), % CFB (Percent change from baseline), Median [3]: 4.6%
- Post bronchodilator Forced Vital Capacity (FVC), % CFB (Percent change from baseline), Min [3]: −16%
- Post bronchodilator Forced Vital Capacity (FVC), % CFB (Percent change from baseline), Q1 [3]: −6%
- Post bronchodilator Forced Vital Capacity (FVC), % CFB (Percent change from baseline), Q3 [3]: 12%
- Post bronchodilator Forced Vital Capacity (FVC), CFB (Change from baseline), Max [3]: 450 mL
- Post bronchodilator Forced Vital Capacity (FVC), CFB (Change from baseline), Mean ± SD [3]: 70.0 ± 388.16 mL
- Post bronchodilator Forced Vital Capacity (FVC), CFB (Change from baseline), Median [3]: 150.0 mL
- Post bronchodilator Forced Vital Capacity (FVC), CFB (Change from baseline), Min [3]: -470 mL
- Post bronchodilator Forced Vital Capacity (FVC), CFB (Change from baseline), Q1 [3]: -180 mL
- Post bronchodilator Forced Vital Capacity (FVC), CFB (Change from baseline), Q3 [3]: 320 mL
- Post bronchodilator Forced Vital Capacity (FVC), Observed, Max [3]: 3460 mL
- Post bronchodilator Forced Vital Capacity (FVC), Observed, Mean ± SD [3]: 3082.5 ± 447.84 mL
- Post bronchodilator Forced Vital Capacity (FVC), Observed, Median [3]: 3165.0 mL
- Post bronchodilator Forced Vital Capacity (FVC), Observed, Min [3]: 2540 mL
- Post bronchodilator Forced Vital Capacity (FVC), Observed, Q1 [3]: 2715 mL
- Post bronchodilator Forced Vital Capacity (FVC), Observed, Q3 [3]: 3450 mL
- Post bronchodilator Peak Flow, % CFB (Percent change from baseline), Max [3]: 42%
- Post bronchodilator Peak Flow, % CFB (Percent change from baseline), Mean ± SD [3]: 16.9 ± 28.64%
- Post bronchodilator Peak Flow, % CFB (Percent change from baseline), Median [3]: 18.1%
- Post bronchodilator Peak Flow, % CFB (Percent change from baseline), Min [3]: −10%
- Post bronchodilator Peak Flow, % CFB (Percent change from baseline), Q1 [3]: −8%
- Post bronchodilator Peak Flow, % CFB (Percent change from baseline), Q3 [3]: 42%
- Post bronchodilator Peak Flow, CFB (Change from baseline), Max [3]: 150 L/min
- Post bronchodilator Peak Flow, CFB (Change from baseline), Mean ± SD [3]: 51.5 ± 88.04 L/min
- Post bronchodilator Peak Flow, CFB (Change from baseline), Median [3]: 46.0 L/min
- Post bronchodilator Peak Flow, CFB (Change from baseline), Min [3]: -36 L/min
- Post bronchodilator Peak Flow, CFB (Change from baseline), Q1 [3]: -22 L/min
- Post bronchodilator Peak Flow, CFB (Change from baseline), Q3 [3]: 125 L/min
- Post bronchodilator Peak Flow, Observed, Max [3]: 509 L/min
- Post bronchodilator Peak Flow, Observed, Mean ± SD [3]: 326.0 ± 148.82 L/min
